The record followed here is patent US20230138851A1, “NOVEL ALKYNE DERIVATIVES” (CARNA BIOSCIENCES, INC., priority 2020, published 2023).

Type in all cases: biochemical
The target in experiment [1] is T1, DYRK3 (Homo sapiens, UniProt O43781).
T1 construct: purchased Carna Biosciences, Inc. 04-133
T1 sequence (O43781 1-588): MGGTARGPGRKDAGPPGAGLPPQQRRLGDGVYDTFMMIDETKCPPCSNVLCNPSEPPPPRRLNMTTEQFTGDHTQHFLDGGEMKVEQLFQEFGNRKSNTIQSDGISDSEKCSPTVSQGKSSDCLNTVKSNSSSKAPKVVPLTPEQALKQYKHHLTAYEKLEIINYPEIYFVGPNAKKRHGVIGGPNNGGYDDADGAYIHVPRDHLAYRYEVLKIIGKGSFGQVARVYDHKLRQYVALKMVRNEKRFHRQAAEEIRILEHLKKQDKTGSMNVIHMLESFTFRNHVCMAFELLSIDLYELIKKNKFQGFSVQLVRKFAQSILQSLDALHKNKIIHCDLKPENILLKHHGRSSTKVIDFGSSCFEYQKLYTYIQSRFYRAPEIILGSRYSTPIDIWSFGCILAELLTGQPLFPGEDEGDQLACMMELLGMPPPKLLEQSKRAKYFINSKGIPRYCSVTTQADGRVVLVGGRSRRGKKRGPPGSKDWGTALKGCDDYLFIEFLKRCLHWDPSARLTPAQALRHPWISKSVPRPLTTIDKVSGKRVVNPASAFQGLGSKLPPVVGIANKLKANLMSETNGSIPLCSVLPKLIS
Put plainly: Inhibition test on activity of DYRK family, mobility shift assay (MSA), DYRK3. The conditions noted are these: ATP 20 μM, FITC-labeled DYRKtide peptide substrate, room temperature 1 hour; for pIC50: read-out: Inhibitory Activity 3 (IC50 against DYRK3). The gist of the method:
(§1)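 FITC-DYRKtide phosphorylation in 20 mM HEPES pH 7.5 with MgCl2; ATP in the substrate mix was 100 μM (DYRK1A), 200 μM (DYRK1B), 40 μM (DYRK2) or 20 μM (DYRK3). Reactions ran 1 h at room temperature; inhibition from P/(P+S) versus blank and DMSO control, IC50 by regression on log concentration.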

The target of experiment [2] is T2, DYRK1A (Homo sapiens, UniProt Q13627).
T2 construct: purchased Carna Biosciences, Inc. 04-130
Put plainly: Inhibition test on activity of DYRK family, mobility shift assay (MSA), DYRK1A. As to conditions: ATP 100 μM, FITC-labeled DYRKtide peptide substrate, room temperature 1 hour. The procedure, abridged:
as §1

Experiment [3] has as its target T3, DYRK2 (Homo sapiens, UniProt Q92630).
T3 construct: purchased Carna Biosciences, Inc. 04-132
T3 sequence (Q92630 1-601): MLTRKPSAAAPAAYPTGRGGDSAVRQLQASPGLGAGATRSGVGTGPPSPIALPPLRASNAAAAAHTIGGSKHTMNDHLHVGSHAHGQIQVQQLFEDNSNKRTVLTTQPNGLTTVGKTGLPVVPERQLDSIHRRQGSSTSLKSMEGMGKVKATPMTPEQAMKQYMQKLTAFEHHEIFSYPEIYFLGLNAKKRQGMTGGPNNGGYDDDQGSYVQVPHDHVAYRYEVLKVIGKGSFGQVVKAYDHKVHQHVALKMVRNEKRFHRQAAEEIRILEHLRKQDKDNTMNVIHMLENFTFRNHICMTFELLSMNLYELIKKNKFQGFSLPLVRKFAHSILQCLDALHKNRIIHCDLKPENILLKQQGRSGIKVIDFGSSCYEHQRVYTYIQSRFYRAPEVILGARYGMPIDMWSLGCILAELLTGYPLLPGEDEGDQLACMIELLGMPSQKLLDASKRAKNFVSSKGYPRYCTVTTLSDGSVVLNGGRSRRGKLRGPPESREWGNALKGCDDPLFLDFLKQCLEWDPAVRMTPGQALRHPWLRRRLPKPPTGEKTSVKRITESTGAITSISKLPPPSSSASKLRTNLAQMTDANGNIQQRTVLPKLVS
Put plainly: Inhibition test on activity of DYRK family, mobility shift assay (MSA), DYRK2. As to conditions: ATP 40 μM, FITC-labeled DYRKtide peptide substrate, room temperature 1 hour; for pIC50: read-out: Inhibitory Activity 2 (IC50 against DYRK2). The gist of the method:
as §1

The target in experiment [4] is T4, DYRK1B (Homo sapiens, UniProt Q9Y463).
T4 construct: purchased Carna Biosciences, Inc. 04-131
Put plainly: Inhibition test on activity of DYRK family, mobility shift assay (MSA), DYRK1B. Further details: Inhibitory Activity 1b (IC50 against DYRK1B): scale not given here. As to conditions: ATP 200 μM, FITC-labeled DYRKtide peptide substrate, room temperature 1 hour. The method, then:
[Inhibition Test on Activity of DYRK Family (DYRK1A, DYRK1B, DYRK2, and […])]
(Method for Measuring Kinase Activity)
The kinase activity was measured by mobility shift assay (MSA) method using QuickScout Screening Assist™ MSA (commercially available kit manufactured by Carna Biosciences, Inc.). The substrate of the kinase reaction used was an FITC-labeled DYRKtide peptide included in the kit. An assay buffer [20 mM HEPES, 0.01% Triton X-100™, 2 mM dithiothreitol, pH 7.5] was used to create a substrate mixture solution with a substrate (4 μM), MgCl2 (20 mM), and ATP (DYRK1A: 100 μM; DYRK1B: 200 μM; DYRK2: 40 μM; and DYRK3: 20 μM). In addition, kinases (DYRK1A: manufactured by Carna Biosciences, Inc., Cat. No. 04-130; DYRK1B: manufactured by Carna Biosciences, Inc., Cat. No. 04-131; DYRK2; manufactured by Carna Biosciences, Inc., Cat. No. 04-132; and DYRK3; manufactured by Carna Biosciences, Inc., Cat. No. 04-133) were diluted with the assay buffer to prepare enzyme solutions (DYRK1A: 0.2 ng/μL; DYRK1B: 0.08 ng/μL; DYRK2: 0.04 ng/μL; and DYRK3: 0.25 ng/μL). The 10 mM solution of the test compound in DMSO was further diluted with DMSO to 10 levels of the concentration (0.00003 mM, 0.0001 mM, 0.0003 mM, 0.001 mM, 0.003 mM, 0.01 mM, 0.03 mM, 0.1 mM, 0.3 mM, and 1 mM), each of which was subjected to 25-fold dilution with the assay buffer to obtain a drug solution (4% DMSO solution). 5 μL of the drug solution or a control solution (4% DMSO-assay buffer), 5 μL of the substrate mixture solution, and 10 μL of the enzyme solution were mixed in the wells of a polypropylene 384-well plate and allowed to react at room temperature for 1 hour, and then the reaction was quenched by adding 60 μL of the termination buffer included in the kit. Subsequently, the quantities of the substrates (S) and the phosphorylated substrate (P) in the reaction solution were measured using LabChip EZ Reader II system (manufactured by Caliper Life Sciences) according to the protocol of the assay kit.
(Method for Evaluating Inhibitory Activity)
The heights of the peaks of the “substrate” and the “phosphorylated substrate” were expressed as S and P, respectively, and a blank containing the assay buffer instead of the enzyme solution was also measured.
The inhibition rate (%) of the test compound was calculated according to the following equation:
Inhibition rate (%)=(1−(C−A)/(B−A))×100
wherein, A, B, and C represent P/(P+S) of the blank well, P/(P+S) of the control solution well, and P/(P+S) of the compound-containing well, respectively.
The IC50 value was calculated via a regression analysis of the inhibition rate and the test compound concentration (logarithmic value).
The inhibiting activities of representative compounds of the present invention are shown against DYRK1A, DYRK1B, DYRK2, and DYRK3 in Tables 7 and 8. The kinase activity inhibitory effect was indicated with the mark *** at an IC50 value of less than 0.01 μM; the mark ** at 0.01 μM or more and less than 0.1 μM; the mark * at 0.1 μM or more and less than 1 μM; and the mark — at 1 μM or more (N.D. indicates not measured).

pIC50: −log10 of the molar value. Some results are limits rather than exact numbers.

As usually defined, the pIC50 is the IC50 on a negative log10 scale, so that one unit is a factor of ten.

T4 sequence (Q9Y463 whole entry): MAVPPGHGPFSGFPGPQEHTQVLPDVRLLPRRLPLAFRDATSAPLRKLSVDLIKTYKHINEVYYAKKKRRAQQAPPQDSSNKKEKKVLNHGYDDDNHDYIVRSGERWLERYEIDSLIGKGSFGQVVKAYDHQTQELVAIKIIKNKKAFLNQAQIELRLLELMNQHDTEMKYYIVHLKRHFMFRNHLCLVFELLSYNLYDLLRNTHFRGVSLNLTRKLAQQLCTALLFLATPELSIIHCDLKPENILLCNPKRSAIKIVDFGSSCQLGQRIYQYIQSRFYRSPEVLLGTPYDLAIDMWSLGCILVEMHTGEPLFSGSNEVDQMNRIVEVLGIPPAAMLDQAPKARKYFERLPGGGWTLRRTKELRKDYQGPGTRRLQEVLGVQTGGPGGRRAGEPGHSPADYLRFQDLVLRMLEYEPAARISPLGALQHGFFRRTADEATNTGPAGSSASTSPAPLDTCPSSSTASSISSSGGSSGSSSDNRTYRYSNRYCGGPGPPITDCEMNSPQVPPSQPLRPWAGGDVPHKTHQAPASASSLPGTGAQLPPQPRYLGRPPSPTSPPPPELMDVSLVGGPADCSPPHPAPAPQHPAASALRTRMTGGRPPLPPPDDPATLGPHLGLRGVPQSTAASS

As to `CC#CC1CNC(=O)N1c1nc2c(ccc3ncn(C4CCOCC4)c32)s1` (racemic) [Example 32, (RS)-5-(prop-1-yn-1-yl)-1-[8-(tetrahydro-2H-pyran-4-yl)-8H-imidazo[4′,5′:5,6]benz [1,2-d]thiazol-2-yl]imidazolidin-2-one], the “Inhibitory Activity 3 (IC50 against DYRK3)” value in experiment [1] is recorded as “* *”. In addition, the “Inhibitory Activity 1a (IC50 against DYRK1A)” value (shortened to “Inhibitory Activity 1a”) in experiment [2] is “* * *”. In experiment [3], the “Inhibitory Activity 2 (IC50 against DYRK2)” value was “* *”. Besides, in experiment [4], the “Inhibitory Activity 1b (IC50 against DYRK1B)” value (shortened to “Inhibitory Activity 1b”) was “* * *”.
`CC#C[C@H]1CNC(=O)N1c1nc2c3c(ccc2s1)OCO3` [Example 3, (S)-1-([1,3]dioxolo[4′,5′:5,6]benzo[1,2-d]thiazol-7-yl)-5-(1-propyn-1-yl)imidazolidin-2-one]: the negative-log IC50 (pIC50) in experiment [1] and in experiment [3] was ≤ 6.00 throughout. Further, the “Inhibitory Activity 1a” value in experiment [2] is listed as “* *”. Also, the “Inhibitory Activity 1b” value in experiment [4] is reported as “* *”.
As for `CC#CC1CNC(=O)N1c1nc2c(ccc3nnn(C)c32)s1` (racemic) [Example 28, (RS)-1-(1-methyl-1H-thiazolo[4′,5′:3,4]benz[1,2-d][1,2,3]triazol-7-yl)-5-(prop-1-yn-1-yl)imidazolidin-2-one], the pIC50 in experiment [1] was 6.00 to 7.00; in experiment [3], ≤ 6.00. For the same compound, the “Inhibitory Activity 1a” value in experiment [2] was “* * *”. Also, the “Inhibitory Activity 1b” value in experiment [4] is “* * *”.
As for `CC#CC1CNC(=O)N1c1nc2c(ccc3nnn(C)c32)s1` (single isomer, unassigned) [Example 29, 1-(1-methyl-1H-thiazolo[4′,5′:3,4]benz[1,2-d][1,2,3]triazol-7-yl)-5-(prop-1-yn-1-yl)imidazolidin-2-one], the pIC50 in experiment [1] is ≤ 6.00; in experiment [2] (read-out: Inhibitory Activity 1a (IC50 against DYRK1A)), 6.00 to 7.00; in experiment [3], ≤ 6.00; in experiment [4] (read-out: Inhibitory Activity 1b (IC50 against DYRK1B)), 6.00 to 7.00.
With `CC#CC1CNC(=O)N1c1nc2c(ccc3ncn(C)c32)s1` (racemic) [Example 26, (RS)-1-(8-methyl-8H-imidazo[4′,5′:5,6]benz[1,2-d]thiazol-2-yl)-5-(prop-1-yn-1-yl)imidazolidin-2-one], in experiment [1], the “Inhibitory Activity 3 (IC50 against DYRK3)” value was “* *”. Further, in experiment [2], the “Inhibitory Activity 1a” value is recorded as “* * *”. The pIC50 in experiment [3] is 6.00 to 7.00. The “Inhibitory Activity 1b” value in experiment [4] is recorded as “* * *”.
`CC#C[C@@H]1[C@H](C)NC(=O)N1c1nc2c3c(ccc2s1)OCC3` [Example 5, (4S,5R)-1-(7,8-dihydrobenzofuro[4,5-d]thiazol-2-yl)-4-methyl-5-(prop-1-yn-1-yl)imidazolidin-2-one]: the pIC50 in experiment [1] and in experiment [3] was 6.00 to 7.00 in each case. In experiment [2], the “Inhibitory Activity 1a” value is reported as “* * *”. The “Inhibitory Activity 1b” value in experiment [4] is “* * *”.
For `CC#CC1CNC(=O)N1c1nc2c(ccc3nccnc32)s1` (racemic) [Example 24, (RS)-5-(prop-1-yn-1-yl)-1-(thiazolo[4,5-f]quinoxalin-2-yl)imidazolidin-2-one], the pIC50 in experiment [1] and in experiment [3] was 6.00 to 7.00 in each case. Also, the “Inhibitory Activity 1a” value in experiment [2] is “* * *”. The “Inhibitory Activity 1b” value in experiment [4] is “* * *”.
